According to patent US9546179B2, “Heterocycle amido alkyloxy substituted quinazoline derivative and use thereof” (priority 2011, dated 2017):

The compounds below were run against T1, receptor tyrosine kinase EGFR (Homo sapiens, UniProt P00533) (assay: Inhibitory effect on receptor tyrosine kinase EGFR (ELISA, Poly(Glu, Tyr)4:1, PY99 antibody)). Details: ATP 4 μM, 1 hour at 37° C.
T1 construct: purchased Shanghai 3bio Technology Co., Ltd. Lot No. 4018780925
T1 sequence (P00533 25-1210): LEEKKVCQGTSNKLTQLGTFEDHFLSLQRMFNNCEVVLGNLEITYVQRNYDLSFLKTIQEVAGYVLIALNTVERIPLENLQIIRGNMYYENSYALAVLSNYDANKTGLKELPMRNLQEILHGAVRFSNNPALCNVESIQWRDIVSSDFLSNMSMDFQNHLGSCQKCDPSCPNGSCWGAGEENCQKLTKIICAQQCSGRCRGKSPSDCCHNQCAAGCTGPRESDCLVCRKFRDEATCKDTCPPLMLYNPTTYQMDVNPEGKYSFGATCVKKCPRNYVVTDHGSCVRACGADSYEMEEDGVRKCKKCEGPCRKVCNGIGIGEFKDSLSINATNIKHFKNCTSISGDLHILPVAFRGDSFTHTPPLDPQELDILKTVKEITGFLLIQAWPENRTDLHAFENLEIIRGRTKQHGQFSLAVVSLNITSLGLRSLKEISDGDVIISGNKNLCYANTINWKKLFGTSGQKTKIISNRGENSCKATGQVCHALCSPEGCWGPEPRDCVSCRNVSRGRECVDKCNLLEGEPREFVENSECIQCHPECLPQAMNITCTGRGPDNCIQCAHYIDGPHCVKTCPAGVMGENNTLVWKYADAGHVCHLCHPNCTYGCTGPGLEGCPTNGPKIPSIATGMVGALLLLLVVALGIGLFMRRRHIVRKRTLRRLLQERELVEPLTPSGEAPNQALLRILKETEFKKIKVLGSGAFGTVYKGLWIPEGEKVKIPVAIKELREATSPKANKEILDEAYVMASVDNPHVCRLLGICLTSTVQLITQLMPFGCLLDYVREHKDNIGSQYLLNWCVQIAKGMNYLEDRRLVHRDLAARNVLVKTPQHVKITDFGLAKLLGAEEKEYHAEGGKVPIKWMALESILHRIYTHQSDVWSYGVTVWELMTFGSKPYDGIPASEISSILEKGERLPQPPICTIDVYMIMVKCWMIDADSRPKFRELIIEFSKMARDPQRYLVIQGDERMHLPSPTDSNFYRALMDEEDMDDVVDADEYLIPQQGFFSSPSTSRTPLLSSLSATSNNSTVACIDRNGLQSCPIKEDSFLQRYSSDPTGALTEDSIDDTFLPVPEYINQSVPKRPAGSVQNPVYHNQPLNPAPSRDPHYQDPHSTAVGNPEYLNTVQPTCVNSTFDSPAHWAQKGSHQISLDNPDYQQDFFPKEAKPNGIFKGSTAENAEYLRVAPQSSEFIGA
Format: biochemical
Experimental: Poly(Glu, Tyr)4:1 was diluted into 100 μg/ml by PBS without potassium. Enzyme label plate was coated with 37 μl/well at 37° C. overnight,
The liquid in the wells was removed. The plate was rinsed by T-PBS for 5 minutes, and dried at 37° C. after repeated 3 times.
The testing sample was diluted to the concentration concerned by reaction buffer solution, and added into the wells of the coated enzyme label plate. The concentration diluted should realize 1.0000 μg/ml, 0.1250 μg/ml, 0.0156 μg/ml, 0.00195 μg/ml and 0.00024 μg/ml in the 100 μl reaction.
Adding in ATP solution (4 μM of final concentration) diluted by reaction buffer solution,
Finally, the tyrosine kinase diluted by reaction buffer solution was added, and forming the reaction with 100 μl total volume.
Meanwhile, negative control wells and enzyme-free control wells were prepared. The reaction was kept in the dark wet box for 1 hour at 37° C. The plate was rinsed by T-PBS for three times after the reaction ended, and blocked by 1% BSA […] for 30 min, and then, PY99 antibody (1:1000 diluted by 0.05% PBST with 1% BSA) was added in 100 μl/well. After incubated at 37° C. for 30 minutes, the plate was rinsed by T-PBS for three times, and the goat anti-mouse IgG marked with HRP (1 mg/ml 1:1000 diluted by 0.05% PBST with 1% BSA) was then added in 100 μl/well. After incubated at 37° C. for 30 minutes, the plate was rinsed by T-PBS for three times.
Colorimetric solution OPD was added in 100 μl/well for 20 minutes' reaction in the dark side at the room temperature. Colorimetric substrate solution OPD was the solution of 0.1 mol/L citric acid-disodium hydrogen phosphate buffer (pH 5.0) with 20 mmol/L OPD and 12 mmol/L H2O2 (freshly prepared when using).
50 μl of 2M H2SO4 (2 mol/L sulfuric acid containing 0.1 mol/L sodium sulfate) was added in to terminate the reaction, and the A492 value was read with adjustable wavelength micro late enzyme-labeling instrument VERSAmax.
The inhibition rate of samples is calculated by the following formula: […]
For `C#Cc1cccc(Nc2ncnc3cc(OC)c(OCCCN4CCC5(CC4)CCN(C)C5=O)cc23)c1` [Example 44, 4-(3′-ethynylphenylamino)-6-[3-(2-methyl-2,8-diazaspiro[4.5]decane-3-ketone-8-yl)propoxy]-7-methoxyquinazoline], the IC50 was 10 to 100 nM. In the case of `C#Cc1cccc(Nc2ncnc3cc(OC)c(OCCCN4CC5(CNC(=O)C5)C4)cc23)c1` [Example 45, 4-(3′-ethynylphenylamino)-6-[3-(2,6-diazaspiro[3.4]octane-7-ketone-2-yl)-propoxy]-7-methoxyquinazoline], the IC50 is reported as 10 to 100 nM. In the case of `C#Cc1cccc(Nc2ncnc3cc(OC)c(OCCCN4CCC5(CC4)CNC(=O)O5)cc23)c1` [Example 46, 4-(3′-ethynylphenylamino)-6-[3-(1-oxa-3,8-diazaspiro[4.5]decane-2-ketone-8-yl)-propoxy]-7-methoxyquinazoline], the IC50 is reported as 10 to 100 nM. In the case of `C#Cc1cccc(Nc2ncnc3cc(OC)c(OCCCN4CCC5(C4)CN(C)C(=O)O5)cc23)c1` (stereo not shown) [Example 47, 4-(3′-ethynylphenylamino)-6-[3-(3-methyl-1-oxa-3,7-diazaspiro[4.4]nonane-2-ketone-7-yl)-propoxy]-7-methoxyquinazoline], the IC50 is reported as 10 to 100 nM. `C#Cc1cccc(Nc2ncnc3cc(OC)c(OCCCN4CCC5(CCN(C(C)=O)C5)C4)cc23)c1` (stereo not shown) [Example 51, 4-(3′-ethynylphenylamino)-6-[3-(7-acetyl-2,7-diazaspiro[4.4]-nonane-2-yl)-propoxy]-7-methoxyquinazoline] showed an IC50 of 0.1 to 10 nM. With `COc1cc2ncnc(Nc3ccc(F)c(Cl)c3)c2cc1OCCN1CC2(CCOCC2)C1` [Example 53, 4-(3′-chloro-4′-fluorophenylamino)-6-[3-(7-oxa-2-azaspiro[3.5]nonane-2-yl)-oxethyl]-7-methoxyquinazoline] the IC50 was 10 to 100 nM. With `COc1cc2ncnc(Nc3ccc(F)c(Cl)c3)c2cc1OCCN1CCC2(CCNC2=O)C1` (stereo not shown) [Example 55, 4-(3′-chloro-4′-fluorophenylamino)-6-[2-(2,7-diazaspiro[4.4]-nonane-1-ketone-7-yl)-oxethyl]-7-methoxyquinazoline] the IC50 was 100 to 1000 nM. In the case of `COc1cc2ncnc(Nc3ccc(F)c(Cl)c3)c2cc1OCCN1CCC2(CC1)CC(=O)N(C)C2` [Example 56, 4-(3′-chloro-4′-fluorophenylamino)-6-[2-(2-methyl-2,8-diazaspiro[4.5]decane-2-ketone-8-yl)-oxethyl]-7-methoxyquinazoline], the IC50 is reported as > 1000 nM. Compound `COc1cc2ncnc(Nc3ccc(F)c(Cl)c3)c2cc1OCCN1CCC2(CC1)CNC(=O)O2` [Example 58, 4-(3′-chloro-4′-fluorophenylamino)-6-[2-(1-oxa-3,8-diazaspiro[4.5]decane-2-ketone-8-yl)-oxethyl]-7-methoxyquinazoline] has an IC50 of 100 to 1000 nM. Compound `COc1cc2ncnc(Nc3ccc(F)c(Cl)c3)c2cc1OCCN1CCC2(C1)CN(C)C(=O)O2` (stereo not shown) [Example 59, 4-(3′-chloro-4′-fluorophenylamino)-6-[2-(3-methyl-1-oxa-3,7-diazaspiro[4.4]nonane-2-ketone-7-yl)-oxethyl]-7-methoxyquinazoline] has an IC50 of 10 to 100 nM. Compound `COc1cc2ncnc(Nc3ccc(F)c(Cl)c3)c2cc1OCCN1CC2(CNC(=O)O2)C1` [Example 60, 4-(3′-chloro-4′-fluorophenylamino)-6-[2-(5-oxa-2,7-diazaspiro[3.4]octane-6-ketone-2-yl)-oxethyl]-7-methoxyquinazoline] has an IC50 of 100 to 1000 nM. Work on `COc1cc2ncnc(Nc3ccc(F)c(Cl)c3)c2cc1OCCN1CC2(C1)CN(C)C(=O)O2` [Example 61, 4-(3′-chloro-4′-fluorophenylamino)-6-[2-(7-methyl-5-oxa-2,7-diazaspiro[3.4]octane-6-ketone-2-yl)-oxethyl]-7-methoxyquinazoline] yielded an IC50 of 10 to 100 nM. Work on `COc1cc2ncnc(Nc3ccc(F)c(Cl)c3)c2cc1OCCN1CC2(COC2)C1` [Example 62, 4-(3′-chloro-4′-fluorophenylamino)-6-[2-(2-oxa-6-azaspiro[3.3]heptane-6-yl)-oxethyl]-7-methoxyquinazoline] yielded an IC50 of 100 to 1000 nM.
